Assays:
[1] = molecular target: T1, PARN1-430 (Homo sapiens, UniProt O95453); assay: Gel assay of poly(A) RNA shortening by PARN1-430; type: biochemical
T1 construct: expression of the C-terminal truncated protein (1-430 aa of PARN) was soluble; His tag (from the pCold I vector); made in house; host or cells: E. coli Rosetta 2 DE
T1 sequence (O95453 1-430): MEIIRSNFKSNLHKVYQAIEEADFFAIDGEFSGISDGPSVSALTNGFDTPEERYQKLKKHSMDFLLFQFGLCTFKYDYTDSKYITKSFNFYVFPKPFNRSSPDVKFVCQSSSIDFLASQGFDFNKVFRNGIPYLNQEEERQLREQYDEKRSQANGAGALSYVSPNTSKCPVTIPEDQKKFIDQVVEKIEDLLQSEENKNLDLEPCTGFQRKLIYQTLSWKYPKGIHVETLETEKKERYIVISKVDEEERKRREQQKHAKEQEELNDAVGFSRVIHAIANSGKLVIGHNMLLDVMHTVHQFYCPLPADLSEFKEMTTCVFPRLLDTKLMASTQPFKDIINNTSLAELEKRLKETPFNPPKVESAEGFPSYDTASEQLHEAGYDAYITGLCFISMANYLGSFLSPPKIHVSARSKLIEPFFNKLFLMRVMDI
Experimental: PARN1-430 was incubated with a fluorescently labeled RNA with a CCUUUCC sequence followed by a 9 nucleotide-long poly(A) tail and the reaction product was visualized on denaturing acrylamide gels. We observed that PARN removed the 3′ oligo(A) tail from the RNA substrate (Fig. 2c and d). […] Moreover, we observed that PARN is inhibited when treated with adenosine monophosphate (AMP), as has been reported previously.
1 µL of protein (73 nM as final concentration) (stock protein is diluted in 1× lysis buffer (HEPES KOH, pH 7.4, 30 mM, KOAc 100 mM, and Mg(Oac)2 2 mM) was added to 4 µL of 2.5× reaction buffer (Tris–HCl pH 7.4, 10 mM, KCl 50 mM, MgCl2 5 mM). If drug was added, reaction was pre-incubated with drugs for 10 min before 5 µL of RNA (5 µM as final concentration) was added. The reaction was incubated at 37 °C for 20 min. After the incubation, the reaction was either diluted with 2× loading buffer and heated to 95 °C for 5 min for gel or quenched by adding 10 µL of quencher solution (30 µM of 3′-BHQ labeled quench DNA in 1% SDS). Quenched reaction was incubated at room temperature for 10–60 min and fluorescence was measured using Fluorescein wavelength measurement.
15% TBE-Urea gel (Thermo Fisher Scientific) was prerun at 20W for 30 min. RNAs from the reaction was loaded into 15% TBE gels and run at 300 V for 35 min. The gel was visualized using iBright (Invitrogen FL1500).

[2] = tested on: PARN level in Hela cells; assay: Western blot of PARN protein level in Hela cells; type: cell-based, human; details: 50 μM, 2 days
From the text: The blot was blotted against anti-PARN antibody. (b) Quantification of the changes in PARN levels of western blot using GAPDH as loading controls. siPARN and drug treatments were normalized to scramble siRNA and DMSO controls, respectively. siPARN and drug treatment data were compared to scr and DMSO data, respectively. One-way ANOVA, multiple comparisons test. Average ± SD, N = 3 biological replicates, n = 1. […] (d) Quantification of miR-21-5p levels normalized to U1 RNA. One-way ANOVA, multiple comparisons test, average ± SD, N = 3 biological replicates, n = 1. […] One-way ANOVA, multiple comparisons test, average ± SD, N = 3 biological replicates, n = 2. (f) Representative northern blot showing that miR-21-5p levels decreased in TH11, TH15, and TH16 treatments. […] (g) Quantification of miR-21-5p levels normalized to U1 RNA. […] For nothern blot and RT-qPCR quantifications, Scr and DMSO controls were independently set to 1 and used as control for siPARN and drug treatments, respectively. *P < 0.05, **P < 0.005, ***P < 0.001, ****P < 0.0001, n.s. was not indicated. […]
Cells was lysed with 2× lysis buffer (2.5% SDS, 4% BME, protease inhibitor) and was separated on a 4–12% Bis–Tris NuPage gel (ThermoFisher) and transferred to protran membrane (Amer- sham). […] Blot was quantified using ImageJ and normalized to GAPDH levels (GAPDH antibody (0411) HRP) (Santa Cruz Biotechnology, sc-47724 HRP).

[3] = tested on: Hela cells; assay: Cell death assay (cell counting, with or without doxorubicin); type: cell-based, human
Experimental: Previous work has shown that PARN inhibition leads to cell death in combination with DNA damaging agent, which has been interpreted to occur through the induction of p53[11].
Cell counting were done 2 days post-treatment. For doxorubicin (EMD Millipore, 504042) treatment, doxorubicin (1 μM) was added to cells. Cells were collected and counted at 0 h and 24 h after treatment.

inhibitory effect on PARN1-430, gel assay [1]: most effective PARN1-430 inhibitor
Compound: Cc1ccc(Nc2ncc3c(n2)N(C)C(=O)N(c2cc(NC(=O)c4cccc(C(F)(F)F)c4)ccc2C)C3)cn1 [GNF-7]
PARN level (western blot) [2]: do not affect PARN level
sensitivity of cells to doxorubicin (cell death) ([3]; Hela cells treated 2 days, then doxorubicin 1 μM for 24 h): increase the sensitivity
cell growth compared to DMSO treatment ([3]; Hela cells, 25 μM, 2 days): growth defects

— paper PMC10066322 (Scientific Reports, 2023)
